Consider six compounds from patent US20090221610A1, “Compositions and Methods for Treating Cognitive Disorders” (Yale University, priority 2006, published 2009).

Entries after “also recorded” stand apart in the source; their conditions may differ.

For one experiment, the system named is PFC neurons. Put plainly: Single neuron recording and iontophoresis in monkeys performing a spatial WM (ODR) task. The class given is in vivo, rhesus monkeys. The settings on record: for Decreased: percent of neurons, spatial delay-related firing / Un-changed: number of neurons, spatial delay-related firing / Un-changed: percent of neurons, spatial delay-related firing / Decreased: number of neurons, spatial delay-related firing / Increased: percent of neurons, spatial delay-related firing / Increased: number of neurons, spatial delay-related firing of PFC neurons / Increased: number of neurons, spatial delay-related firing: iontophoresis; for Increased: number of neurons, spatial delay-related firing of PFC neurons: low dose 5-15 nA (text: ZD7288 10 nA); for Increased: number of neurons, spatial delay-related firing: no dose in table (text: Sp-cAMPS 10 nA, Rp-cAMPS 40-50 nA); for Reversal of the enhancing effects of guanfacine on delay-related activity: co-iontophoresis with guanfacine (yohimbine 15 nA; Sp-cAMPS 10 nA); for Reversal: number of neurons / Reversal: percent of neurons / No Reversal: number of neurons / No Reversal: percent of neurons: co-iontophoresis. The protocol: Studies were performed on 4 adult male rhesus monkeys trained on the spatial ODR task (FIG. 3). Iontophoretic electrodes, neuronal recording and drug delivery were as described in (Wang et al., 2004) and also are provided in the Supplemental Material. Guanfacine, yohimbine, ZD7288(Tocris, Ellisville, Mo.) and etazolate (Sigma, St. Louis, Mo.) were dissolved at 0.01M in triple-distilled water (adjusted with HCl to pH 3.5-4.0). Sp-cAMP and Rp-cAMP (Sigma) were dissolved at 0.01M in triple-distilled water (adjusted with NaOH to pH 9). Two-way ANOVA was used to examine the spatial tuned task-related activity with regard to: (1) different periods of the task (cue, delay, response vs. fixation) and (2) different cue locations. One-way ANOVAs were employed to assess the effect of the drug application on cells displaying delay-related activity. Monkeys performed an oculomotor spatial delayed response (ODR) task, illustrated in FIG. 3A. The ODR task requires the monkey to make a memory-guided […] to a visuo-spatial target. Stimulus position was randomized over trials to ensure use of WM. Neurons were recorded from area 46 of the dorsolateral PFC (FIG. 3B) as the monkey performed the task. […] In the present study, 128 neurons with delay-related mnemonic activity were isolated and subjected to iontophoretic application of pharmacological agents See Table 1, below summarizing the effects of drugs (Table 1) and their reversal (Table 2) on PFC neuronal response.

Experiment [1] relates to rat prefrontal cortex. Put plainly: Spatial delayed alternation task in a T maze after intra-PFC infusion. The experiment is classed as in vivo.
For experiment [2], the system named is rat prefrontal cortex. Described as above. The experiment is classed as in vivo. The protocol: Rats (n=5) were tested on the spatial delayed alternation task in a T maze, a classical test of prefrontal cortical function in rodents (Larsen and Divac, Physiolog Psychol, 6:15-17, 1978). Rats were trained on the task, and then implanted with cannula aimed at the prelimbic prefrontal cortex as described in (Ramos, et al., Neuron, 40:835-845, 2003). Following recovery from surgery, rats were infused with saline (0.5 μl), the Ih channel blocker ZD7288 (0.0001 μg/0.5 μl), the cAMP analog […]), or a combination of ZD7288 (0.0001 μ[…] (0.21 nmol). There was at least one week washout between drug treatments, and a within subjects comparison was performed (2 way analysis of variance with repeated measures with user defined contrasts). […] Male Sprague Dawley rats (240-260 g; Taconic, Germantown, N.Y.) were trained on the delayed alternation task as described in Ramos et al., 2003. Guide cannula were implanted dorsal in prelimbic PFC (AP: +3.2 mm; ML: ±0.75 mm; DV: -4.2 mm). For infusions, needles reached to 4.5 mm DV; infused at 0.25 μL/min for 2 min. Drug or vehicle was administered in a counterbalanced order with at least 1 week between infusions. […] The experimenter was blind to treatment.
The source holds these as a separate data set.

Another experiment deals with ferret PFC slices. As to the kind of experiment: In vitro extracellular multiple unit and intracellular recording from PFC slices. The class given is cell-based. The settings on record: bath application 20-50 micromolar. The protocol:
Methods for extracellular multiple unit and intracellular recording in ferret PFC slices have been detailed elsewhere (Shu et al., 2003). Slices (0.4 mm) from 2-4 month old ferret PFC were maintained in either an interface or submerged chamber (35-36° C.) in a slice solution containing (in mM): NaCl, 126; KCl, 3.1; MgSO4, 1; NaHPO4, 1.25; CaCl2, 1; NaHCO3, 26; dextrose, 10, and aerated with 95% O2, 5% CO2 to a final pH of 7.4. Simultaneous extracellular multiple unit and intracellular recordings were performed in layer 5 with the electrodes approximately […] of one another. Intracellular micropipettes contained 2 M potassium acetate, while whole cell recording pipettes contained KGluconate 140, KCl 3, MgCl2 2, Na2ATP 2, HEPES 10, and EGTA 0.2. The cellular and network consequences of modulation of HCN channels was examined with intracellular and whole cell recordings from layer 5 pyramidal cells simultaneously with extracellular multiple unit recordings in the ferret PFC in vitro (n=55, see FIG. 6G). Under normal conditions, these slices generate Up and Down states, consisting of repeating periods of recurrent network activity (Shu et al., 2003).

Setting [3] is: no dose in table (yohimbine 15 nA, Sp-cAMPS 10 nA, etazolate 25 nA).
Where [4] appears, read: iontophoresis 10 nA, example neuron.

Turning to `CCOC(=O)c1cnc2c(cnn2CC)c1NN=C(C)C` [Etazolate], in the experiment with PFC neurons (no dose in table), the “Decreased: percent of neurons, spatial delay-related firing” value (“Decreased: percent of neurons” for short) was “(83%)”; the “Un-changed: number of neurons, spatial delay-related firing” value (“Un-changed: number of neurons” below) was found to be 2; the “Un-changed: percent of neurons, spatial delay-related firing” value (“Un-changed: percent of neurons” below) came to 17%. Also, the “Decreased: number of neurons, spatial delay-related firing” value (“Decreased: number of neurons” below) in the experiment with PFC neurons (setting [3]) is reported as 10.

Take `NC(N)=NC(=O)Cc1c(Cl)cccc1Cl` [Guanfacine, N-(diaminomethylidene)-2-(2,6-dichlorophenyl)acetamide]: the “Spatial working memory performance (percent correct, delayed alternation)” value in the experiment with rat prefrontal cortex [1] (aged rats (n=9), prefrontal infusion 0.0001 μg) was “significantly different than saline”. Further, the “Effect on delay-related firing for the preferred direction” value in the experiment with PFC neurons (setting [4]) was “substantially increased; also recorded: significantly increased”. Also, in the experiment on PFC neurons (iontophoresis 50 nA, higher dose), the “Effect on delay-related firing” value was “did not have enhancing effects”. For the same compound, in the experiment with PFC neurons (5-15 nA), the “Increased: percent of neurons, spatial delay-related firing” value (from here on “Increased: percent of neurons”) is reported as “(80%)”; the “Un-changed: number of neurons” value is 7; the “Un-changed: percent of neurons” value came out at 20%. Further, the “Decreased: percent of neurons” value in the experiment on PFC neurons (20-50 nA) is recorded as “(100%)”. In addition, the “Decreased: number of neurons” value in the experiment on PFC neurons (high dose 20-50 nA) came out at 9. The “Increased: number of neurons, spatial delay-related firing of PFC neurons” value in the experiment on PFC neurons came out at 28.

Take `Nc1ncnc2c1ncn2[C@@H]1O[C@@H]2COP(O)(=S)O[C@H]2[C@H]1O` (stereo partly drawn) [Rp-cAMP]: the “Effect on delay-related firing for the preferred direction” value in the experiment with PFC neurons (iontophoresis 40-50 nA) is listed as “specifically increased”. In the experiment with PFC neurons (no dose in table), the “Increased: percent of neurons” value is “(67%)”; the “Un-changed: number of neurons” value stood at 4; the “Un-changed: percent of neurons” value worked out at 33%. Also, in the experiment with PFC neurons, the “Increased: number of neurons, spatial delay-related firing” value is 8. Moreover, the “Increased: number of neurons, spatial delay-related firing” value in the experiment with PFC neurons (listed as Rp-cAMPS) amounted to 8.

In the case of `Nc1ncnc2c1ncn2[C@@H]1O[C@@H]2COP(O)(=S)O[C@H]2[C@H]1O` (stereo partly drawn) [Sp-cAMP], the “Effect of co-infusion on the guanfacine effects on working memory” value in the experiment on rat prefrontal cortex [1] (aged rats, co-infusion with guanfacine) is reported as “reversed”. Also, in the experiment with PFC neurons, the “Reversal of the enhancing effects of guanfacine on delay-related activity” value is “significantly reversed” and the “Increased: number of neurons, spatial delay-related firing” value turned out to be 9. Further, in the experiment with PFC neurons (reversal of Rp-cAMP), the “Reversal: number of neurons” value came to 6 and the “Reversal: percent of neurons” value was “(100%)”. In the experiment with PFC neurons (reversal of guanfacine), the “No Reversal: number of neurons” value came to 3, the “No Reversal: percent of neurons” value is reported as 33%, the “Reversal: number of neurons” value is given as 6 and the “Reversal: percent of neurons” value is “(67%)”. In addition, the “Effect on delay-related firing for the preferred direction” value in the experiment with PFC neurons (setting [4]) is listed as “significantly decreased”. In the experiment on PFC neurons (no dose in table), the “Decreased: percent of neurons” value was “(48%)”; the “Increased: percent of neurons” value is recorded as “(33%)”; the “Un-changed: number of neurons” value came to 5; the “Un-changed: percent of neurons” value is reported as 19%. In the experiment on PFC neurons (listed as Sp-cAMPS), the “Increased: number of neurons, spatial delay-related firing” value came out at 9. Besides, the “Decreased: number of neurons” value in the experiment on PFC neurons (setting [3]) came to 13. For the same compound, the “Un-changed: number of neurons” value in the experiment with PFC neurons (no dose in table, listed as Sp-cAMPS) was determined as 5. In addition, in the experiment with PFC neurons (subsequent co-iontophoresis with Rp-cAMPS), the “Reversal of the enhancing effect of Rp-cAMPS on delay-related firing” value is reported as “reversed”. In the experiment on rat prefrontal cortex [2] (co-infusion 0.21 nmol with ZD7288 0.0001 μg, listed as Sp-cAMPS), the “Effect of co-infusion on the ZD7288 improvement of working memory” value is recorded as “significantly reversed; also recorded: blocked; also recorded: significantly reduced”. Besides, the “Spatial working memory performance compared to saline” value with rat prefrontal cortex [2] (intra-PFC infusion 0.21 nmol/0.5 μl alone) is “no effect on its own”.

On to `COC(=O)[C@@H]1[C@H]2C[C@H]3c4[nH]c5ccccc5c4CCN3C[C@@H]2CC[C@@H]1O` [Yohimbine], for which the “Reversal of the enhancing effects of guanfacine on delay-related activity” value with PFC neurons is given as “reversed”. For the same compound, in the experiment on PFC neurons (reversal of guanfacine), the “Reversal: number of neurons” value turned out to be 6 and the “Reversal: percent of neurons” value was “(100%)”. Besides, the “Effect on delay-related activity for the preferred direction” value in the experiment on PFC neurons (iontophoresis 15 nA) is given as “dramatically suppressed”. Moreover, the “Decreased: percent of neurons” value with PFC neurons (no dose in table) is “(100%)”. For the same compound, the “Decreased: number of neurons” value in the experiment with PFC neurons (setting [3]) worked out at 15.

With `CCN(c1ccccc1)c1cc(NC)[n+](C)c(C)n1.[Cl-]` [ZD7288], the “Reversal of the reduction in delay-related firing induced by etazolate” value in the experiment on PFC neurons (co-iontophoresis with etazolate) is “fully reversed”. For the same compound, the “Reversal of the yohimbine suppression of delay-related activity” value in the experiment on PFC neurons (co-iontophoresis with yohimbine (15 nA)) is reported as “significantly reversed”. For the same compound, in the experiment with PFC neurons (reversal of etazolate), the “No Reversal: number of neurons” value is 2, the “No Reversal: percent of neurons” value came to 25%, the “Reversal: number of neurons” value was 6 and the “Reversal: percent of neurons” value is recorded as “(75%)”. Also, in the experiment with PFC neurons (reversal of yohimbine), the “No Reversal: number of neurons” value came out at 2, the “No Reversal: percent of neurons” value is reported as 31%, the “Reversal: number of neurons” value was 7 and the “Reversal: percent of neurons” value was “(71%)”. Moreover, in the experiment with PFC neurons (reversal of yohimbine, listed as ZD 7288), the “Reversal: number of neurons” value is given as 5. Also, in the experiment with PFC neurons (iontophoresis 5 nA, example neuron), the “Effect on delay-related firing for the preferred direction” value is on record as “significantly increased”. The “Effect on delay-related firing for the preferred direction” value in the experiment on PFC neurons (setting [4]) is “further enhanced”. Besides, the “Effect on delay-related firing” value in the experiment on PFC neurons (iontophoresis 40 nA, highest concentration) is given as “decreased rather than increased firing”. Moreover, in the experiment on PFC neurons (5-15 nA), the “Increased: percent of neurons” value is recorded as “(70%)”; the “Un-changed: number of neurons” value is reported as 8; the “Un-changed: percent of neurons” value is 30%. The “Decreased: percent of neurons” value with PFC neurons (20-50 nA) is recorded as “(100%)”. In addition, the “Decreased: number of neurons” value with PFC neurons (high dose 20-50 nA) worked out at 10. The “Increased: number of neurons, spatial delay-related firing of PFC neurons” value in the experiment on PFC neurons came to 19. The “Number of action potentials generated by a depolarizing current pulse” value in the experiment on ferret PFC slices is listed as “increase”. In addition, the “Up-state action potential discharge” value in the experiment with ferret PFC slices (from 1.8±1.7 Hz, n=9) is 9.2±4.9 Hz. For the same compound, in the experiment with ferret PFC slices (from 18.6±7.5, n=10), the Apparent input resistance is on record as 36±10.8 Mohms. Also, the “Duration of the recurrent network activity of the Up state” value with ferret PFC slices (from an average of 0.84 (±0.25) before) is reported as 4.1 (±1.3) sec. Besides, the “Increase in duration of the recurrent network activity of the Up state” value in the experiment with ferret PFC slices (n=10) is given as roughly 500%. The “Membrane potential of layer 5 pyramidal neurons” value with ferret PFC slices (n=12) is reported as “progressive hyperpolarization”. The “Spatial working memory performance (percent correct, delayed alternation) compared to saline” value in the experiment on rat prefrontal cortex [2] (intra-PFC infusion 0.0001 μg/0.5 μl, n=5) was “significantly improved”.
